The source of these data is patent publication US9561232B2, “Low dose noribogaine for treating nicotine addiction and preventing relapse of nicotine use” (priority 2014, dated 2017).

The structures appear in SMILES notation.

In one data set the test system is nicotine dependent rats. Kind of data set: Nicotine self-administration test. The class given is in vivo, Sprague-Dawley rats.
A short description of data set [1]: Ascending single oral dose pharmacokinetics of noribogaine in healthy volunteers (plasma, urine, LCMSMS). The note with it: for mean AUC/24 hr / mean AUC/24: fasting conditions, serum.
Data set [2] has as its system opioid-dependent participants. The experiment in a line: Efficacy in opioid-dependent participants: time to resumption of OST and COWS/OOWS/SOWS withdrawal scores. The class given is in vivo, human. The protocol:
The efficacy of noribogaine in humans was evaluated in opioid-dependent participants in a randomized, placebo-controlled, double-blind trial. […] See U.S. application Ser. No. 14/214,157, filed Mar. 14, 2014 and Ser. No. 14/346,655, filed Mar. 21, 2014, which are incorporated herein by reference in their entireties.
Three cohorts of nine (9) subjects (6 administered noribogaine and 3 administered placebo in each cohort) were evaluated for tolerability, pharmacokinetics, and efficacy. Cohort 1 received a single dose of 60 mg noribogaine or placebo. Cohort 2 received a single dose of 120 mg noribogaine or placebo. Cohort 3 received a single dose of 180 mg noribogaine or placebo. […] Headaches were frequent in the placebo and 60 mg noribogaine treatment groups, but were attenuated in the 120 mg and 180 mg dose groups.
Patients were evaluated based on the Clinical Opiate Withdrawal Scale (COWS), Subjective Opiate Withdrawal Scale (SOWS), and Objective Opiate Withdrawal Scale (OOWS) scoring systems over the period of time between administration of noribogaine (or placebo) until resumption of OST. These scales are outlined in Guidelines for the Psychosocially Assisted Pharmacological Treatment of Opioid Dependence, World Health Organization, Geneva (2009), Annex 10, which is incorporated herein by reference in its entirety. The scales measure the intensity of withdrawal symptoms, based on clinical, subjective, and objective indicia.

The nature of data set [3]: QT interval evaluation in opioid-dependent participants. The class given is in vivo, human. The settings on record: 60, 120, 180 mg, first 24 hours post administration; correlated with serum concentration. As for the experimental part: Patients' QT intervals were evaluated at regular time points throughout the study.
Data set [4] can be described thus: Pupillometry (pupillary miosis) in healthy volunteers. The format is in vivo, human. As for the experimental part: Pupillary miosis was assessed by pupillometry.
A short description of data set [5]: Treatment emergent adverse events in opioid-dependent participants.
The mark [6] stands for this setting: noribogaine in plasma, across dose groups 3-60 mg.

A word on the Tmax: it is the time from dosing to the highest level. For `CC[C@H]1CC2C[C@H]3c4[nH]c5ccc(O)cc5c4CCN(C2)C13` [Noribogaine], the nicotine infusion entry in the data set with nicotine dependent rats (12.5 mg/kg orally 2 hours prior to test, P<0.10 vs vehicle) is “A trend of depression of nicotine infusions”; in the data set on nicotine dependent rats (25 mg/kg orally 2 hours prior to test, P<0.001 vs vehicle) it was “significantly depressed nicotine infusion”; in the data set on nicotine dependent rats (50 mg/kg orally 2 hours prior to test, P<0.001 vs vehicle) it was “significantly depressed nicotine infusion”. Moreover, the “inactive lever press during nicotine self-administration” value in the data set on nicotine dependent rats (all treatments, repeated measure ANOVA, P>0.05) was “no significant main effect of treatment”. In addition, in data set [1] (healthy volunteers, single oral 30 mg noribogaine, fasted, plasma, mean (SD), n = 6, listed as noribogaine free base), the Tmax turned out to be 1.75 h. In data set [1] (setting [6]), the Mean half-life estimates was 28 to 50 h. Further, in data set [1] (setting [6]), the “time of peak concentrations after oral dosing” value lay in the range of 2 to 3 h. The “mean AUC/24 hr” value was found to be 3.1 ng/mL in data set [1] (single dose of 3 mg noribogaine free base) and 10.6 ng/mL in data set [1] (single dose of 10 mg noribogaine free base). In addition, the entries for the “mean AUC/24” value in data set [1] (single dose of 30 mg noribogaine free base) and in data set [1] (single dose of 60 mg noribogaine free base) were 29.2 ng/mL and 61 ng/mL, respectively. The “dose dependence of Cmax and AUC” value in data set [1] (single oral 3-60 mg) is “increased linearly with dose”. For the same compound, the “withdrawal symptoms (COWS, OOWS, SOWS), first six hours following dosing” value in data set [2] (120 mg) is on record as “generally experienced fewer withdrawal symptoms than the other patients”. Moreover, in data set [2] (60, 120, 180 mg, first six hours following dosing), the “withdrawal symptoms (COWS, OOWS, SOWS), noribogaine versus placebo” value is “Patients administered placebo generally experienced more withdrawal symptoms than patients who were administered noribogaine”. The “average time to resumption of opioids (OST)” value in data set [2] (single 180 mg dose) is “still longer than untreated patients”. Besides, the “QT interval prolongation (ΔQTcl)” value in data set [3] was “dose-dependent increase in QT interval prolongation”. The “pupil diameter, each dose group compared with placebo” value in data set [4] (ANOVA after adjusting for baseline, 3-60 mg) was “no statistically significant differences”. In data set [4] (healthy volunteers, single oral 3-60 mg), the pupillary constriction entry is reported as “no evidence of pupillary constriction”. The Headaches entry in data set [5] (60 mg treatment group) was “frequent”; in data set [5] (120 mg and 180 mg dose groups) it was “attenuated”. In data set [5] (opioid-dependent participants, single 60, 120 or 180 mg), the adverse effects observed result is “Few adverse effects”. The “Dry Mouth” value in data set [5] (treatment emergent AE, 60 mg, N = 6) is reported as 0.
